PubChem BioAssay (NCI)
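Briefly, cells in 96-well plates were exposed to five compound concentrations for 48 h, and endpoints were estimated by linear interpolation. TGI denotes the concentration required for complete inhibition of growth.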

Assays:
Assay in all cases: NCI-60 cell line screen, 48 h
BT-549 breast = system: BT-549 breast
ACHN renal = system: ACHN renal
SN12C renal = system: SN12C renal
CAKI-1 renal = system: CAKI-1 renal
PC-3 prostate = system: PC-3 prostate
HS 578T breast = system: HS 578T breast
UO-31 renal = system: UO-31 renal
HT29 colon = system: HT29 colon
SF-539 CNS = system: SF-539 CNS
SNB-75 CNS = system: SNB-75 CNS
CCRF-CEM leukemia = system: CCRF-CEM leukemia
NCI-H226 lung = system: NCI-H226 lung
HCT-15 colon = system: HCT-15 colon
A549 NSCLC = system: A549 NSCLC
MDA-N = system: MDA-N
UACC-62 melanoma = system: UACC-62 melanoma
HOP-92 NSCLC = system: HOP-92 NSCLC
A498 renal = system: A498 renal
T-47D breast = system: T-47D breast
LOX IMVI melanoma = system: LOX IMVI melanoma

| Structure (SMILES) | TGI (BT-549 breast) [µM] | TGI (ACHN renal) [µM] | TGI (SN12C renal) [µM] | TGI (CAKI-1 renal) [µM] | TGI (PC-3 prostate) [µM] | TGI (HS 578T breast) [µM] | TGI (UO-31 renal) [µM] | TGI (HT29 colon) [µM] | TGI (SF-539 CNS) [µM] | TGI (SNB-75 CNS) [µM] | TGI (CCRF-CEM leukemia) [µM] | TGI (NCI-H226 lung) [µM] | TGI (HCT-15 colon) [µM] | TGI (A549 NSCLC) [µM] | TGI (MDA-N) [µM] | TGI (UACC-62 melanoma) [µM] | TGI (HOP-92 NSCLC) [µM] | TGI (A498 renal) [µM] | TGI (T-47D breast) [µM] | TGI (LOX IMVI melanoma) [µM] |
| --- | --- | --- | --- | --- | --- | --- | --- | --- | --- | --- | --- | --- | --- | --- | --- | --- | --- | --- | --- | --- |
| CCOC(=O)c1nc2cc(F)c(N3CCOCC3)cc2[nH]c1=O | > 100 | > 100 | > 100 | > 100 | > 100 | > 100 | > 100 | > 100 | > 100 | > 100 | > 100 | > 100 | > 100 | > 100 | > 100 | > 100 | > 100 | > 100 | > 100 | – |
| NCC(=O)Nc1ccc(S(=O)(=O)O)c2cc(S(=O)(=O)O)cc(S(=O)(=O)O)c12 | > 100 | > 100 | > 100 | > 100 | > 100 | > 100 | > 100 | > 100 | > 100 | > 100 | > 100 | > 100 | > 100 | > 100 | > 100 | > 100 | > 100 | > 100 | > 100 | > 100 |
| CC(=O)OCC1OC(n2c(C)cc(C)c(C#N)c2=S)C(OC(C)=O)C(OC(C)=O)C1OC(C)=O (stereo not given) | > 100 | > 100 | > 100 | > 100 | > 100 | > 100 | > 100 | > 100 | > 100 | > 100 | > 100 | > 100 | > 100 | > 100 | > 100 | > 100 | > 100 | > 100 | > 100 | > 100 |
| CC(=O)OCC1OC(OC2CC3C(C)(C)C(O)CC[C@]3(C)C3CCC45CC4(CCC5[C@@H](C)CC(O)C(O)C(C)(C)O)[C@]23C)C(O)C(O)C1O (stereo not given in full) | > 10 | > 10 | > 10 | > 10 | > 10 | > 10 | > 10 | > 10 | > 10 | > 10 | > 10 | > 10 | > 10 | > 10 | > 10 | > 10 | > 10 | > 10 | > 10 | > 10 |
| COc1ccc(N=NC(=O)NC(CC(C)C)C(=O)NC(C)C(=O)O)cc1 (stereo not given) | > 100 | > 100 | > 100 | > 100 | > 100 | > 100 | > 26.6 | > 100 | 14.4 | > 100 | > 100 | > 100 | > 100 | > 51.2 | > 100 | > 100 | > 100 | > 100 | > 45.3 | – |
| CC1C=CN(N(C)C)C2=C1C(=O)c1cnccc1C2=O (stereo not given) | 1.66 | 1.06 | 0.558 | 0.597 | 7.89 | 3.82 | 0.39 | 2.27 | 1.26 | 0.868 | 5.01 | 2.14 | 1.23 | 2.11 | 0.278 | 0.342 | 3.87 | 2.66 | 4.33 | 0.307 |
| COc1ccc(/C=C2\c3cc(OC)c(OC)cc3CCN2C(=O)c2ccccc2)cc1OC | > 100 | > 100 | > 100 | > 100 | > 100 | > 100 | > 100 | > 100 | > 100 | > 100 | 98.4 | > 100 | > 100 | > 100 | 65.2 | > 100 | > 100 | > 100 | 86.8 | > 100 |
| CCOC(=O)Cc1ccc(Nc2nc3ccccc3nc2C(=O)OCC)cc1 | > 100 | > 100 | > 100 | > 100 | > 100 | 88.9 | 41.3 | > 100 | > 100 | 38.3 | > 100 | > 100 | > 100 | > 100 | > 100 | > 100 | > 100 | 86.7 | > 100 | > 100 |
| COC(=O)C1=C(O)c2ccc(Cl)cc2S(=O)(=O)N1C | > 100 | > 100 | > 100 | > 100 | > 100 | > 100 | – | > 100 | – | – | > 100 | – | > 100 | > 100 | > 100 | > 100 | > 100 | > 100 | > 100 | > 100 |
| CCOC(=O)/C=C(\C(=O)OCC)n1ccc(=O)n(Cc2cn(CCCCOC(C)=O)nn2)c1=O | 24.7 | 11.4 | 43 | 8.57 | 36.9 | 63.1 | 28.6 | 21.7 | 5.65 | 41.8 | 4.59 | 32.7 | 25.3 | 45.9 | 42.6 | 33.2 | 5.15 | 32 | > 41 | 48.1 |
| CC1OC(OC2C(OC(=O)[C@]34CCC(C)(C)C[C@H]3C3=CC[C@@H]5[C@@]6(C)CC[C@H](OC7OC(CO)C(O)C(O)C7OC7OC(CO)C(O)C(O)C7O)C(C)(C)[C@@H]6CC[C@@]5(C)[C@]3(C)CC4)OCC(O)C2O)C(O)C(OC2OCC(O)C(O)C2O)C1OC1OCC(O)C(OC2OCC(O)C(O)C2O)C1O (stereo not given in full) | 31.4 | 25.9 | 5.56 | 21.8 | 25.9 | 50.9 | 4.98 | 14.2 | > 100 | 40.8 | > 100 | 24.7 | > 79.4 | 15 | 5.77 | 30.2 | 20.2 | 5.11 | 51.8 | > 74.6 |
| CCOC(=O)/C=C(/C(=O)OCC)n1cnc2c(=O)[nH]c(NC(C)=O)nc21 | > 100 | > 100 | > 100 | > 100 | > 100 | > 100 | > 100 | > 100 | > 100 | > 100 | > 100 | > 100 | > 100 | > 100 | > 100 | > 100 | > 100 | > 100 | > 100 | > 100 |
| CC(C)=CCC/C(C)=C/CC/C(C)=C/CC(CO)N(C)CC/C=C(\C)CCC=C(C)C (stereo not given) | 27.5 | 23.8 | 17.4 | 19.2 | 20.2 | 16.7 | 17.9 | 14.4 | 9.76 | 25 | > 25.2 | 28.4 | 14.8 | 17.5 | 12.4 | 29.9 | 8.85 | 28.4 | 10.7 | 7.56 |
| O=c1nc(N2CCNCC2)oc2cc(Cl)oc(=O)c12 | 6.26 | 23.5 | 33.1 | 9.49 | 19.9 | 5.9 | 23 | 12.9 | 11.8 | 17.4 | 47.8 | 37.9 | 15 | 20.2 | 9.06 | 25.2 | 15.6 | 37.9 | > 21.7 | 5.89 |
| COC(=O)/C=C\C(C#N)(C#N)N=Cc1cc(Br)cs1 | 17.9 | 4.93 | 7.64 | 7.53 | 16 | 45.1 | 5.01 | 4.86 | 11 | 29.7 | 2.38 | 35.3 | 6.37 | 32.4 | 6.62 | 33 | 4.73 | 32.9 | 5.07 | 4.51 |
| C=C1CC/C=C(\C)CCC[C@H](C)[C@@H](O)[C@@H]2OC(=O)C(=C)[C@@H]2C[C@H]1O | 3 | 9.5 | 42 | 17 | 23.1 | 33.9 | 19.2 | 15.2 | 6.94 | 24.7 | – | 11.5 | 13.1 | 33.9 | 35.9 | 25.9 | 7.22 | > 100 | 47.1 | 25.9 |
| Cc1ncc([N+](=O)[O-])n1CCNCCCCn1ccnc1[N+](=O)[O-] | > 100 | > 100 | > 100 | > 100 | > 100 | > 100 | > 100 | > 100 | > 100 | > 100 | > 100 | > 100 | > 100 | > 100 | > 100 | > 100 | > 100 | > 100 | > 100 | > 100 |
| CCOC(=O)NNC(=O)NCCCCNC(=O)NNC(=O)OCC | > 100 | > 100 | > 100 | > 100 | > 100 | > 100 | > 100 | > 100 | > 100 | > 100 | > 100 | > 100 | > 100 | > 100 | > 100 | > 100 | > 100 | > 100 | > 100 | > 100 |
| COc1cc2c3c(c1OC)-c1cc4c(cc1CC3(C#N)N(C(=O)c1ccccc1)CC2)OCO4 (stereo not given) | > 100 | > 97.2 | > 100 | > 81 | > 100 | 82 | > 94.1 | > 100 | 54.7 | 28.1 | > 100 | 78.2 | > 100 | > 100 | > 100 | 43.2 | 32.5 | 82.3 | > 100 | > 93.6 |
| O=C(N(O)c1ccccc1Cl)C(O)(c1ccccc1)c1ccccc1 | > 100 | > 100 | > 100 | > 100 | > 100 | > 100 | 57.9 | > 100 | > 100 | – | 41 | > 100 | > 100 | > 100 | > 100 | > 100 | > 100 | > 100 | > 100 | > 100 |
| O=C1NC(N/N=C\C(O)C(O)C(O)C(O)CO)=N/C1=C/c1ccc(Cl)cc1 (stereo not given) | > 100 | > 100 | > 100 | > 100 | > 100 | > 100 | > 100 | > 100 | > 100 | > 100 | > 100 | > 100 | > 100 | > 100 | > 100 | – | > 100 | > 100 | > 100 | > 100 |
| COc1cccc2nc3c(C(=O)NCCN(C)C)cccc3cc12 | 10.7 | 2.85 | 8.35 | 4.18 | 10.2 | 7.5 | 2.99 | 7.61 | 7.9 | 14.4 | 61.3 | 4.15 | 11.2 | 4.49 | 8.42 | 7.77 | 11.2 | 2.98 | 16.7 | 2.49 |
| COC(=O)NC(C(F)(F)F)(C(F)(F)F)P1(=O)OCCCO1 | 68.3 | 54.2 | > 100 | – | > 100 | > 100 | 65.6 | 63.9 | 43 | > 100 | > 100 | 98.7 | 59 | > 100 | 70.3 | 33.2 | > 100 | 38 | 84.3 | 58.4 |
